{
  "source": "patent US20030134851A1",
  "about": "“Methods and compositions for providing glutamine” (priority 2001, published 2003)",
  "key": {"[1]": {"experiment": "Aqueous stability at various pH values, ambient temperature (HPLC)", "type": "physicochemical", "conditions": "for GLN (glutamine) in glutamine solution / PGA (pyroglutamic acid) in glutamine solution: pH 6.0, 1 mg/mL", "procedure": "HPLC analysis was conducted using an Inertsil® C8, 5 micrometer, 4.6×250 mm column (obtained from Keystone Scientific, Inc., Bellefonte, Pa.). The mobile phase was water adjusted to pH 2.2 with HCl (isocratic at 1 mL/minute). The injection volume was 10 microliters. Ultraviolet detection was at 214 nm. In order to test the stability of N-acetyl-L-glutamine in aqueous solutions at various pH values, the following procedure was followed. Aqueous solutions of N-acetyl-L-glutamine were prepared in 1 pH unit increments from pH 2.0 to 8.0. The pH of the solutions was adjusted with either hydrochloric acid or sodium hydroxide, as needed, just prior to final dilution (final concentration=1 mg/mL or 5.3 mM N-acetyl-L-glutamine). A single solution of glutamine was not pH adjusted (measured pH=6.0) and was prepared at 1 mg/mL or 6.8 mM glutamine. All solutions were sterile-filtered (Millipore Millex®-GS, 25 mm, 0.22 micrometer pore size, sterile) into autosampler vials and capped for storage at ambient temperature (17-25° C.). N-acetyl-L-glutamine samples were assessed by HPLC at various time points, from 1 to 180 days. The glutamine sample was assessed by HPLC at similar time points, from 1 to 45 days."}, "[2]": {"experiment": "Stability in liquid nutritional type products during retort sterilization and room temperature storage", "type": "physicochemical", "procedure": "In order to test the stability of N-acetyl-L-glutamine in a matrix similar to that found in liquid nutritional type products, the following procedure was followed. […] The product containing N-acetyl-L-glutamine was made according to the procedure set forth above in Example 1. The product containing glutamine was made in a similar manner, except […].79 kg) was substituted for N-acetyl-L-glutamine. The products were assessed for degradation before and after a retort sterilization process, which is typical for liquid nutritional processing (here, 128° C. for 5 minutes). The products were stored at room temperature (20-22° C.) and assessed for evidence of degradation at 1, 2 and 3 months. Glutamine, N-acetyl-L-glutamine and pyroglutamic acid (if present) were quantified at each process and time point. In order to analyze by HPLC for glutamine, N-acetyl-L-glutamine and pyroglutamic acid, samples were filtered as follows. A 5.0 mL aliquot was transferred to a 50 mL volumetric flask. Twenty drops of 1 M hydrochloric acid was added and the sample was diluted to volume with deionized water. An aliquot was filtered through a 0.45 micron filter (Millipore, Millex®-HV, 25 mm). The samples were analyzed by HPLC as described above (Heat Stability section). The total amount of pyroglutamic acid present in the protein formula, including both free pyroglutamic acid and N-terminal pyroglutamic acid, can be determined by the following method. Initially, samples were prepared as a water solution to a concentration of approximately 18 g total protein/L. A 20 microliter aliquot of the prepared sample material was placed in a 1.5 mL screw cap vial, and 980 microliters of a freshly prepared enzyme solution (0.05 M Tris, 0.005 M dithiothreitol, 0.001 M disodium ethylenediaminetetraacetic acid (EDTA), pH 8.0, containing 11 units of pyroglutamate aminopeptidase/mL) was added. The vial was tightly capped, and incubated at room temperature (21-24° C.) for 24 hours. The solution was then processed through a C-18 SPE cartridge as detailed below. For free pyroglutamic acid determination, the initial sample solution was diluted to a total protein content of 2-3 g/L in deionized water, and processed through a C-18 SPE cartridge. C-18 SPE (Solid Phase Extraction) cartridges (100 mg/1 mL size) were obtained from Burdick & Jackson, Muskegon, Mich. SPE cartridges were prepared for use with 2×5 volumes of methanol, and then rinsed with 2×5 volumes of deionized water. The 1 mL sample is then slowly applied, and flow-through material collected in a […] screw cap vial. Elution was completed by applying 2×500 microliters of deionized water, collecting pass through volume in the same vial. The eluate was mixed, and then an aliquot filtered through a 0.45 micrometer filter prior to HPLC analysis (25 mm, 0.45 micrometer filters were obtained from Gelman, Ann Arbor, Mich.). The HPLC system used had the following parameters: pump model G1312A, autosampler model G1313A, thermostatted column compartment model G1316A, diode array detector model G1315A, and peak integrator/data processor model […], all obtained from Agilent Technologies, Palo Alto, Calif. Column: 6.5×150 mm ION-310, 8 micrometer from Interaction Chromatography, San Jose, Calif. The system was pre-equilibrated in mobile phase (5 mN H2SO4) at 40° C. at 0.3 mL/min. prior to use. For analysis a 10 microliter aliquot of sample or standard was injected, and the column was eluted with mobile phase at 0.3 mL/min. and 40° C. Eluting materials were detected by UV absorption at 210 nm and 220 nm. The run time was 45 min. Unknown sample concentrations were determined by comparison to standards. Three aqueous solutions of pyroglutamic acid are usually sufficient as standards, i.e., 10, 20, and 40 mg/L (pyroglutamic acid obtained from Fluka, Milwaukee, Wis.)."}, "[3]": {"conditions": "pH 3.0, ambient temperature, 6 months"}, "[4]": {"conditions": "1 month at room temperature after sterilization"}, "[5]": {"conditions": "2 months at room temperature after sterilization"}, "[6]": {"conditions": "3 months at room temperature after sterilization"}, "[7]": {"conditions": "Post-Sterilization (retort, 128° C. for 5 minutes)"}},
  "note": "Entries after “also recorded” stand apart in the source; their conditions may differ. Marks after values point to notes of the source that are not given here.",
  "data": [
    {"smiles": "CC(=O)N[C@@H](CCC(N)=O)C(=O)O", "note": "[N-acetyl-L-glutamine]", "values": [
      {"measurement": "Degradation of N-acetyl-L-glutamine", "setting": "[1]; 1 mg/mL, all pH values (2.0 to 8.0), ambient temperature, through 7 days", "result": "no degradation"},
      {"measurement": "N-acetyl-L-glutamine remaining", "setting": "[1]; pH 2.0, ambient temperature, 6 months", "result": 55.7, "unit": "%"},
      {"measurement": "N-acetyl-L-glutamine remaining", "setting": "[1]; pH 2.0, ambient temperature, 15 days", "result": 97.0, "unit": "%"},
      {"measurement": "N-acetyl-L-glutamine remaining", "setting": "[1]; pH 3.0, ambient temperature, 4 months", "result": 94.2, "unit": "%"},
      {"measurement": "N-acetyl-L-glutamine remaining", "setting": "[1]; [3]", "result": 90.4, "unit": "%"},
      {"measurement": "N-acetyl-glutamic acid and 2,6-dioxopiperidinylacetamide (approximately equal levels)", "setting": "[1]; [3]", "result": "about 5%"},
      {"measurement": "N-acetyl-glutamic acid and 2,6-dioxopiperidinylacetamide (approximately equal levels)", "setting": "[1]; pH 3.0, ambient temperature, 15 days", "result": "about 0.15%"},
      {"measurement": "N-acetyl-glutamic acid and 2,6-dioxopiperidinylacetamide (approximately equal levels)", "setting": "[1]; pH 3.0, ambient temperature, 30 days", "result": "about 1%"},
      {"measurement": "N-acetyl-L-glutamine remaining", "setting": "[1]; pH 3.0, ambient temperature, through 90 days", "result": "> 95", "unit": "%"},
      {"measurement": "N-acetyl-L-glutamine remaining", "setting": "[1]; pH 4.0, ambient temperature, six months", "result": 97.9, "unit": "%"},
      {"measurement": "N-acetyl-L-glutamine remaining", "setting": "[1]; pH 5.0 to 8.0, ambient temperature, 6 months", "result": "greater than 99.6%"},
      {"measurement": "N-acetyl-L-glutamine in product with N-acetyl-L-glutamine", "setting": "[2]; [4]", "result": 89.8, "unit": "mmol/L product"},
      {"measurement": "N-acetyl-L-glutamine in product with N-acetyl-L-glutamine", "setting": "[2]; [5]", "result": 94.1, "unit": "mmol/L product"},
      {"measurement": "N-acetyl-L-glutamine in product with N-acetyl-L-glutamine", "setting": "[2]; [6]", "result": 89.3, "unit": "mmol/L product"},
      {"measurement": "N-acetyl-L-glutamine in product with N-acetyl-L-glutamine", "setting": "[2]; [7]", "result": 89.8, "unit": "mmol/L product"},
      {"measurement": "Degradation in the liquid nutritional type product (in words)", "setting": "[2]; during sterilization or after 3 months room temperature storage", "result": "no degradation"},
      {"measurement": "N-acetyl-L-glutamine in product with N-acetyl-L-glutamine", "setting": "[2]; liquid nutritional type product, Pre-Sterilization (theoretical 87.7)", "result": 92.5, "unit": "mmol/L product"}
    ]},
    {"smiles": "NC(=O)CC[C@H](N)C(=O)O", "note": "[Glutamine, glutamine]", "values": [
      {"measurement": "GLN (glutamine) in glutamine solution", "setting": "[1]; ambient temperature, 2 days", "result": 100.0, "unit": "height percent"},
      {"measurement": "PGA (pyroglutamic acid) in glutamine solution", "setting": "[1]; ambient temperature, 2 days", "result": "none detected"},
      {"measurement": "GLN (glutamine) in glutamine solution", "setting": "[1]; ambient temperature, 3 days", "result": 99.8, "unit": "height percent"},
      {"measurement": "PGA (pyroglutamic acid) in glutamine solution", "setting": "[1]; ambient temperature, 3 days", "result": 0.2, "unit": "height percent"},
      {"measurement": "GLN (glutamine) in glutamine solution", "setting": "[1]; ambient temperature, 7 days", "result": 99.5, "unit": "height percent"},
      {"measurement": "PGA (pyroglutamic acid) in glutamine solution", "setting": "[1]; ambient temperature, 7 days", "result": 0.5, "unit": "height percent"},
      {"measurement": "GLN (glutamine) in glutamine solution", "setting": "[1]; ambient temperature, 15 days", "result": 99.0, "unit": "height percent"},
      {"measurement": "PGA (pyroglutamic acid) in glutamine solution", "setting": "[1]; ambient temperature, 15 days", "result": 1.0, "unit": "height percent"},
      {"measurement": "GLN (glutamine) in glutamine solution", "setting": "[1]; ambient temperature, 30 days", "result": 98.1, "unit": "height percent"},
      {"measurement": "PGA (pyroglutamic acid) in glutamine solution", "setting": "[1]; ambient temperature, 30 days", "result": 1.9, "unit": "height percent"},
      {"measurement": "GLN (glutamine) in glutamine solution", "setting": "[1]; ambient temperature, 45 days", "result": 96.7, "unit": "height percent"},
      {"measurement": "PGA (pyroglutamic acid) in glutamine solution", "setting": "[1]; ambient temperature, 45 days", "result": 3.3, "unit": "height percent"},
      {"measurement": "Glutamine in product with glutamine", "setting": "[2]; [4]", "result": 13.7, "unit": "mmol/L product"},
      {"measurement": "pyroglutamic acid in product with glutamine", "setting": "[2]; 1 month, calculated with response factor from glutamine standard", "result": "92.9* mmol/L product"},
      {"measurement": "Glutamine in product with glutamine", "setting": "[2]; [5]", "result": "no glutamine was detected; also recorded: trace"},
      {"measurement": "pyroglutamic acid in product with glutamine", "setting": "[2]; 2 months, calculated with response factor from pyroglutamic acid standard", "result": "79.8** mmol/L product"},
      {"measurement": "Glutamine in product with glutamine", "setting": "[2]; [6]", "result": "none"},
      {"measurement": "pyroglutamic acid in product with glutamine", "setting": "[2]; 3 months, calculated with response factor from pyroglutamic acid standard", "result": "80.6** mmol/L product"},
      {"measurement": "Glutamine in product with glutamine", "setting": "[2]; [7]", "result": 34.2, "unit": "mmol/L product"},
      {"measurement": "pyroglutamic acid in product with glutamine", "setting": "[2]; Post-Sterilization, calculated with response factor from glutamine standard", "result": "77.5* mmol/L product"},
      {"measurement": "pyroglutamic acid in product with glutamine", "setting": "[2]; Pre-Sterilization, calculated with response factor from glutamine standard", "result": "27.1* mmol/L product"},
      {"measurement": "Glutamine remaining as fraction of the original concentration", "setting": "[2]; glutamine supplemented product, after the sterilization process", "result": "about ⅓"},
      {"measurement": "Glutamine in product with glutamine", "setting": "[2]; liquid nutritional type product, Pre-Sterilization (theoretical 87.6)", "result": 97.8, "unit": "mmol/L product"}
    ]}
  ]
}
